Assay results from BindingDB's records for doi:10.1016/j.bmcl.2021.128263 (A*Star, 2021).

Biological target: Replicase polyprotein 1ab (Severe acute respiratory syndrome coronavirus, UniProt P0C6X7)
Experiment: Literature assay

Compound	Ki	IC50
CC(OC(C)(C)C)[C@H](NC(=O)OCc1ccccc1)C(=O)N[C@@H](CC1CCCCC1)C(=O)N[C@H](C=O)CC1CCNC1=O (some centres undefined) [TG-0205221]	0.053 µM	–
CC(C)C[C@H](NC(=O)[C@@H](NC(=O)OCc1ccccc1)C(C)C)C(=O)N[C@@H](C[C@@H]1CCNC1=O)C(=O)c1nc2ccccc2s1 [peptidomimetic coronavirus 3CLpro inhibitors 2i]	–	1.7 µM
CC(C)C[C@H](NC(=O)[C@@H](NC(=O)OCc1ccccc1)C(C)C)C(=O)N[C@@H](C[C@@H]1CCNC1=O)C(=O)C(=O)N(C)C [peptidomimetic coronavirus 3CLpro inhibitors 17]	–	0.007 µM
CC(C)C[C@H](NC(=O)OCc1ccccc1)C(=O)N[C@@H](C[C@@H]1CCNC1=O)C(=O)c1nc2ccccc2s1 [peptidomimetic coronavirus 3CLpro inhibitors 25c]	–	210 µM
